The values that follow are results of earlier work, collected in article PMC6379498, “Radiosynthesis and in vivo evaluation of ^11C-labeled BMS-193885 and its desmethyl analog as PET tracers for neuropeptide Y1 receptors” (EJNMMI Radiopharmacy and Chemistry, 2019).

In one series the test system is animal models of obesity. On the set-up: method as in Antal-Zimanyi et al. [2008]. The following applies: acute and chronic administration, ref Antal-Zimanyi et al. [2008]; cited from earlier work.
On the set-up of series [1]: method as in Antal-Zimanyi et al. [2008]. The following applies: dogs, ref Antal-Zimanyi et al. [2008]; cited from earlier work.
On the set-up of series [2]: method as in Poindexter et al. [2002]. The following applies: in vitro, unlabeled 1, ref Poindexter et al. [2002]; cited from earlier work.
A further series addresses NPY Y1-R. On the set-up: method as in Poindexter et al. [2002]. The following applies: ref Poindexter et al. [2002]; cited from earlier work.
On the set-up of series [3]: method as in Antal-Zimanyi et al. [2008]. The following applies: rats, ref Antal-Zimanyi et al. [2008]; cited from earlier work.
Details of series [4]: method as in Antal-Zimanyi et al. [2008]. The following applies: ref Antal-Zimanyi et al. [2008]; cited from earlier work.

Structures are written as SMILES. Read-outs that look alike come from different tables or passages of the source.

As to `COC(=O)C1=C(C)NC(C)=C(C(=O)OC)C1c1cccc(NC(=O)NCCCN2CCC(c3cccc(OC)c3)CC2)c1` [Compound 1], in the series with animal models of obesity, the Body weight entry is “reduced” and the Food intake result is reported as “reduced”. For the same compound, the Adverse cardiovascular effects entry in series [1] was “no serious adverse cardiovascular effects”. Besides, in series [2], the “Stability in rat liver microsomes” value is listed as “good stability”. For the same compound, the Ki on NPY Y1-R was 3.3 nM. Further, in series [3], the Adverse cardiovascular effects result was “no serious adverse cardiovascular effects”. In addition, in series [4], the Brain penetration result is “good”, the Oral bioavailability result is on record as “lacks oral bioavailability” and the Systemic bioavailability entry is given as “good”.

As to `COC(=O)C1=C(C)NC(C)=C(C(=O)OC)C1c1cccc(NC(=O)NCCCN2CCC(c3cccc(O)c3)CC2)c1` [Compound 2, Dimethyl 4-(3-(3-(3-(4-(3-hydroxyphenyl)piperidin-1-yl)propyl)ureido)phenyl)-2,6-dimethyl-1,4-dihydropyridine-3,5-dicarboxylate], the inhibitory constant (Ki) at NPY Y1-R was 2.7 nM.
